Source: patent US6887882B2, “Pharmaceutical compositions comprising chelidonine or derivatives thereof” (priority 2002, dated 2005)

Target: T1, hKv1.5 channel (Homo sapiens, UniProt P22460)
T1 construct: expressed in transfected cells; host or cells: mouse Ltk- cells (pMSVneo vector, G418 selection)
Assay: Block of hKv1.5 channel currents expressed in Ltk-cells (whole cell patch clamp)
Assay type: cell-based
Procedure: Cell line selectively expressing a specific cardiac K^+ channel gene was prepared according to the method described in the thesis (Yang, et al., Inhibition of cardiac potassium currents by the vesnarinone analog OPC-18790: comparison with quinidine and dofetilide. J Pharmacol Exp Ther. 1997, 280: 1170-1175; Kwak, et al., Phosphorylation is required for alteration of Kv1.5 K^+ channel function by the Kvbeta 1.3 subunit. J Biol Chem 1999, 274: 25355-25361).
First, cDNAs for human cardiac K^+ channel genes such as hKv 1.5 and HERG were subcloned into pMSVneo which contain dexamethasone-inducible murine mammary tumor virus promoter controlling transcription of the inserted cDNA and a gene conferring neomycin resistance driven by the SV40 early promotor. The cDNA-containing expression vector was transfected into mouse Ltk-cells with lipofectamine. After 24 hours, the cells selection with […] of G418 was performed for 2 weeks or until discrete foci formed. Individual foci were isolated, maintained in 0.25 μg/ml of G418, and screened by Norhtern analysis and electrophysiological analysis. Transfected cells were cultured in Dulbeco's modified Eagle medium (DMEM) supplemented with 10% horse serum and 0.25 μg/ml of G418, under 5% CO2. Transiently transfected cells were cultured in DMEM media supplemented with only 10% horse serum, differently from stable cell lines.
Currents in human atrial myocytes and cell lines were recorded by using the whole cell configuration of the gigaohm-seal patch clamp techniques (Kwak, et al., Phosphorylation is required for alteration of Kv1.5 K^+ channel function by the Kvbeta 1.3 subunit. J Biol Chem 1999, 274: 25355-25361). First, electrical signals were amplified with a patch clamp amplifier (Axon Instruments, Axopatch-1D, Foster, USA). Currents were digitized by a signal converter (Digidata 1200, Axon Instruments) and stored on the hard disk of a computer. The micropipette with a resistance of 1˜2MΩ (Kimax-51, 1.5=14 1.8×10 mm) for current recording, was pulled out by a 2-stage pipette puller (Narishige, PP-83). The intracellular pipette-filling solution for whole cell mode contained 100 mM KCl, 10 mM HEPES, 5 mM K4BAPTA, 5 mM K2ATP and 1 mM MgCl2 (pH 7.2). The extracellular solution contained 130 mM NaCl, 4 mM KCl, 1.8 mM CaCl2, 1 mM MgCl2, 10 mM HEPES and 10 mM glucose (pH 7.35).
The current traces were recorded with a depolarizing pulse of +50 mV from a holding potential of −80 mV, followed by a repolarizing pulse of −50 mV in the Ltk-cells. To observe the concentration-dependent block of hKv1.5 channel currents by each compound, steady-state currents taken at the end of the depolarizing pulse of +50 mV were normalized to the control obtained in the absence of each compound
FIG. 1e is concentration-response curves showing the relative steady-state currents obtained at the end of the depolarizing pulse against the concentration of each compound. Data were fitted with a Hill equation.
IC50 values (50% inhibitory concentration, μM) of compounds 1˜14 on the hKv1.5 channel currents were determined, and Hill values were calculated from the concentration-response curves of the respective compounds using the Hill equation.

T1 sequence (P22460 whole entry): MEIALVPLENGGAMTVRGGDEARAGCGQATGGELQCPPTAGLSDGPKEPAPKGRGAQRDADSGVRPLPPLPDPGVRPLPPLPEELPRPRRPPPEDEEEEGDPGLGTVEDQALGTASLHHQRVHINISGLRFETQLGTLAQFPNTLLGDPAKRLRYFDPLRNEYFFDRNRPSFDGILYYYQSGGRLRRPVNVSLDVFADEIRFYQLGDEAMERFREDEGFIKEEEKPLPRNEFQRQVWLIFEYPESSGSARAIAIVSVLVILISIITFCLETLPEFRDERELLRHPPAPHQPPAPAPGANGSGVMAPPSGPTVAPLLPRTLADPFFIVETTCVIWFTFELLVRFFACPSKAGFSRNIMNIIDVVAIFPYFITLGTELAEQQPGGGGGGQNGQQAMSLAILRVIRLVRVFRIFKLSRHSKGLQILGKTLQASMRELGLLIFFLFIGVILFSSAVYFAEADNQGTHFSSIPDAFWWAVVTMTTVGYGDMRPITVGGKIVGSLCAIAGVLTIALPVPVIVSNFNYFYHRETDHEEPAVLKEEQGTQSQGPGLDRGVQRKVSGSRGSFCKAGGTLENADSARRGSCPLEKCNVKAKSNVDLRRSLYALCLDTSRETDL

## CN1Cc2c(ccc3c2OCO3)[C@@H]2[C@H]1c1cc3c(cc1C[C@@H]2O)OCO3 [Compound 1, [5bR-(5bα,6β,12bα)]-5b,6,7,12b,13, 14-hexahydro-13-methyl[1,3]benzodioxolo[5,6c]-1,3-dioxolo[4,5-i]phenanthridin-6-ol]
From concentration-response curves using the Hill equation
  Hill value: 1.07
hKv1.5 expressed in Ltk-cells, FIGS. 1a to 1e
  type of hKv1.5 block: predominantly blocked the open ion channels
hKv1.5 expressed in Ltk-cells, FIGS. 1a to 1d
  effect on the hKv1.5 channel currents: concentration-dependent inhibitory effects
hKv1.5 expressed in Ltk-cells, steady-state current at end of +50 mV depolarizing pulse, holding -80 mV
  IC50: 11.5 ± 3.1 µM
